From patent publication US10306878B2, “Insect pest control agent” (priority 2013, dated 2019)

Test system: female cockroach (periplaneta fuliginosa)
Experiment: Efficacy Test 1: Concentrate Dropping Test
Format: in vivo
Details: for Time until the subject insect stops moving (seconds) Average / Time until the subject insect stops moving (seconds) No. 1 / Time until the subject insect stops moving (seconds) No. 2 / Time until the subject insect stops moving (seconds) No. 3 / Time until the subject insect stops moving (seconds) No. 4 / Time until the subject insect stops moving (seconds) No. 5: 0.5 mL dropped between thorax and abdomen; for Time until the subject insect stops moving (seconds) Average: average of five tests; for Time until the subject insect stops moving (seconds) No. 1: repeat No. 1; for Time until the subject insect stops moving (seconds) No. 2: repeat No. 2; for Time until the subject insect stops moving (seconds) No. 3: repeat No. 3; for Time until the subject insect stops moving (seconds) No. 4: repeat No. 4; for Time until the subject insect stops moving (seconds) No. 5: repeat No. 5; for Lethality (%) after 24 hours: 0.5 mL dropped, 24 hours at 20° C., humidity 26%, five tests
Procedure: A plastic cup (capacity of 860 ml) that is open at the top was provided, and butter was spread on the upper part of the cup interior. Then, as a subject insect, one female cockroach (periplaneta fuliginosa) was gently placed on its back at the bottom of the plastic cup.
After confirming that the subject insect is lying on its back, 0.5 mL of the subject agent in Table 1 was dropped on to the insect between the thorax and the abdomen using a pipet, and the time (seconds) until the subject insect's movement completely stopped was measured.
Subsequently, the subject insect was transferred to another plastic cup and left in a room having a temperature of 20° C. and a humidity of 26%. The number of subject insects that died after 24 hours was counted. The test was repeated five times to obtain the lethality (%) based on the average of the results.

Row | Structure (SMILES) | Time until the subject insect stops moving (seconds) Average | Time until the subject insect stops moving (seconds) No. 1 | Time until the subject insect stops moving (seconds) No. 2 | Time until the subject insect stops moving (seconds) No. 3 | Time until the subject insect stops moving (seconds) No. 4 | Time until the subject insect stops moving (seconds) No. 5 | Lethality (%) after 24 hours
1 | FC(F)(F)/C=C/Cl [Example 1, Trans-1-chloro-3,3,3-trifluoropropene] | 1.4 s | 2 s | 1 s | 1 s | 1 s | 2 s | 80%
2 | FC(F)C(F)(F)C(F)(F)C(F)(F)C(F)(F)C(F)(F)F [Comparative Example 2, 1H-Tridecafluorohexane] | 56.4 s | 54 s | 50 s | 53 s | 62 s | 63 s | 40%
